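Step 1: Grow cells in 96-well plates. Step 2: Expose to compound for 48 hours at 5 concentrations. Step 3: Interpolate endpoints linearly; if unreached, use highest concentration. TGI is the concentration that stops growth completely.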
Legend:
Test in all cases: NCI tumour cell line growth inhibition, 48 h
DU-145 prostate = system: DU-145 prostate
NCI-H522 lung = system: NCI-H522 lung
MDA-N = system: MDA-N
P388/ADR leukemia = system: P388/ADR leukemia
SN12K1 renal = system: SN12K1 renal
P388 leukemia = system: P388 leukemia
DMS 273 small cell lung = system: DMS 273 small cell lung
XF 498 CNS = system: XF 498 CNS
DLD-1 colon = system: DLD-1 colon
M19-MEL melanoma = system: M19-MEL melanoma
RXF-631 renal = system: RXF-631 renal

Structure (SMILES)	TGI (DU-145 prostate) [µM]	TGI (NCI-H522 lung) [µM]	TGI (MDA-N) [µM]	TGI (P388/ADR leukemia) [µM]	TGI (SN12K1 renal) [µM]	TGI (P388 leukemia) [µM]	TGI (DMS 273 small cell lung) [µM]	TGI (XF 498 CNS) [µM]	TGI (DLD-1 colon) [µM]	TGI (M19-MEL melanoma) [µM]	TGI (RXF-631 renal) [µM]
COc1ccc(-c2c3c(nc4nc(SC)nc(SC)c24)CCCC3)cc1OC	> 100	> 100	> 100								
CC1OC1C(=O)C1(O)C(C)C(O)C23OC2(C(O)c2c(O)cccc2C3=O)C1O (stereo unspecified)		0.338		0.425	0.889	0.345	0.551	0.961	1.7	0.526	
Cc1ccc(Nc2nc(NS(=O)(=O)c3cc(C(=O)Nc4ccc(Cl)cc4)c(Cl)cc3S)n[nH]2)cc1	> 100		> 100								
O=C(NN1C(=O)CSC1c1ccc(C(F)(F)F)cc1)c1ccncc1 (stereo unspecified)		> 100		> 100	> 100	> 100	> 100	> 100	> 100	> 100	
CN1CCN(c2cc(-c3cc4ccccc4o3)oc(=O)c2C#N)CC1							> 100	> 100	> 100		> 100
CC(c1ccccc1)/[N+]([O-])=C/c1ccccc1 (stereo unspecified)		> 100					> 100	> 100	> 100	> 100	
NC(=S)N/N=C1\c2ccccc2CCC1CCC1(O)CCc2ccccc2C1=O (stereo unspecified)	> 100		58.4								
CCc1nnc(-c2nsc3ccccc23)s1							> 100				
CCOP(=O)(CN=C(c1ccccc1)c1ccccc1)OCC	> 100	> 100	> 100								

Source: PubChem BioAssay (NCI)
